Source: patent US11117900B2 (Vertex Pharmaceuticals Incorporated, priority 2012, dated 2021)

Key:
[1] = target: full-length ATR (Homo sapiens (Human), UniProt Q13535); test: ATR inhibition assay (radioactive-phosphate incorporation); format: biochemical; conditions: Ki(app), 5 nM full-length ATR, 10 μM ATP, 25° C.
Experimental: Compounds were screened for their ability to inhibit ATR kinase using a radioactive-phosphate incorporation assay. Assays were carried out in a mixture of 50 mM Tris/HCl (pH 7.5), 10 mM MgCl2 and 1 mM DTT. Final substrate concentrations were 10 μM [γ-33P]ATP (3 mCi 33P ATP/mmol ATP, Perkin Elmer) and 800 μM target peptide ([…]) (SEQ ID NO:1).
Assays were carried out at 25° C. in the presence of 5 nM full-length ATR. An assay stock buffer solution was prepared containing all of the reagents listed above, with the exception of ATP and the test compound of interest. 13.5 μL of the stock solution was placed in a 96 well plate followed by addition of 2 μL of DMSO stock containing serial dilutions of the test compound (typically starting from a final concentration of 15 μM with 3-fold serial dilutions) in duplicate (final DMSO concentration 7%). The plate was pre-incubated for 10 minutes at 25° C. and the reaction initiated by addition of 15 μL [γ-33P]ATP (final concentration 10 μM).
The reaction was stopped after 24 hours by the addition of […] phosphoric acid containing 2 mM ATP. […]
After removing mean background values for all of the data points, Ki(app) data were calculated from non-linear regression analysis of the initial rate data using the Prism software package (GraphPad Prism version 3.0 cx for Macintosh, GraphPad Software, San Diego Calif., USA).

[2] = test system: HCT116 colorectal cancer cells; test: Cisplatin sensitization assay (96 h MTS cell viability); format: cell-based; conditions: Cisplatin sensitization value;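 also: compound concentration needed to lower the IC50 of Cisplatin alone by a set fold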
Summary of the method: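 The MTS viability read, after 1 h with reagent, followed 96 h of co-treatment at 37° C. in 5% CO2. Both compound and cisplatin were titrated 2-fold from a 10 μM top final concentration in a complete concentration matrix on HCT116 cells. Scores +++/++/+ reflect cisplatin sensitization value ranges.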

full-length ATR, sequence (Q13535 whole entry): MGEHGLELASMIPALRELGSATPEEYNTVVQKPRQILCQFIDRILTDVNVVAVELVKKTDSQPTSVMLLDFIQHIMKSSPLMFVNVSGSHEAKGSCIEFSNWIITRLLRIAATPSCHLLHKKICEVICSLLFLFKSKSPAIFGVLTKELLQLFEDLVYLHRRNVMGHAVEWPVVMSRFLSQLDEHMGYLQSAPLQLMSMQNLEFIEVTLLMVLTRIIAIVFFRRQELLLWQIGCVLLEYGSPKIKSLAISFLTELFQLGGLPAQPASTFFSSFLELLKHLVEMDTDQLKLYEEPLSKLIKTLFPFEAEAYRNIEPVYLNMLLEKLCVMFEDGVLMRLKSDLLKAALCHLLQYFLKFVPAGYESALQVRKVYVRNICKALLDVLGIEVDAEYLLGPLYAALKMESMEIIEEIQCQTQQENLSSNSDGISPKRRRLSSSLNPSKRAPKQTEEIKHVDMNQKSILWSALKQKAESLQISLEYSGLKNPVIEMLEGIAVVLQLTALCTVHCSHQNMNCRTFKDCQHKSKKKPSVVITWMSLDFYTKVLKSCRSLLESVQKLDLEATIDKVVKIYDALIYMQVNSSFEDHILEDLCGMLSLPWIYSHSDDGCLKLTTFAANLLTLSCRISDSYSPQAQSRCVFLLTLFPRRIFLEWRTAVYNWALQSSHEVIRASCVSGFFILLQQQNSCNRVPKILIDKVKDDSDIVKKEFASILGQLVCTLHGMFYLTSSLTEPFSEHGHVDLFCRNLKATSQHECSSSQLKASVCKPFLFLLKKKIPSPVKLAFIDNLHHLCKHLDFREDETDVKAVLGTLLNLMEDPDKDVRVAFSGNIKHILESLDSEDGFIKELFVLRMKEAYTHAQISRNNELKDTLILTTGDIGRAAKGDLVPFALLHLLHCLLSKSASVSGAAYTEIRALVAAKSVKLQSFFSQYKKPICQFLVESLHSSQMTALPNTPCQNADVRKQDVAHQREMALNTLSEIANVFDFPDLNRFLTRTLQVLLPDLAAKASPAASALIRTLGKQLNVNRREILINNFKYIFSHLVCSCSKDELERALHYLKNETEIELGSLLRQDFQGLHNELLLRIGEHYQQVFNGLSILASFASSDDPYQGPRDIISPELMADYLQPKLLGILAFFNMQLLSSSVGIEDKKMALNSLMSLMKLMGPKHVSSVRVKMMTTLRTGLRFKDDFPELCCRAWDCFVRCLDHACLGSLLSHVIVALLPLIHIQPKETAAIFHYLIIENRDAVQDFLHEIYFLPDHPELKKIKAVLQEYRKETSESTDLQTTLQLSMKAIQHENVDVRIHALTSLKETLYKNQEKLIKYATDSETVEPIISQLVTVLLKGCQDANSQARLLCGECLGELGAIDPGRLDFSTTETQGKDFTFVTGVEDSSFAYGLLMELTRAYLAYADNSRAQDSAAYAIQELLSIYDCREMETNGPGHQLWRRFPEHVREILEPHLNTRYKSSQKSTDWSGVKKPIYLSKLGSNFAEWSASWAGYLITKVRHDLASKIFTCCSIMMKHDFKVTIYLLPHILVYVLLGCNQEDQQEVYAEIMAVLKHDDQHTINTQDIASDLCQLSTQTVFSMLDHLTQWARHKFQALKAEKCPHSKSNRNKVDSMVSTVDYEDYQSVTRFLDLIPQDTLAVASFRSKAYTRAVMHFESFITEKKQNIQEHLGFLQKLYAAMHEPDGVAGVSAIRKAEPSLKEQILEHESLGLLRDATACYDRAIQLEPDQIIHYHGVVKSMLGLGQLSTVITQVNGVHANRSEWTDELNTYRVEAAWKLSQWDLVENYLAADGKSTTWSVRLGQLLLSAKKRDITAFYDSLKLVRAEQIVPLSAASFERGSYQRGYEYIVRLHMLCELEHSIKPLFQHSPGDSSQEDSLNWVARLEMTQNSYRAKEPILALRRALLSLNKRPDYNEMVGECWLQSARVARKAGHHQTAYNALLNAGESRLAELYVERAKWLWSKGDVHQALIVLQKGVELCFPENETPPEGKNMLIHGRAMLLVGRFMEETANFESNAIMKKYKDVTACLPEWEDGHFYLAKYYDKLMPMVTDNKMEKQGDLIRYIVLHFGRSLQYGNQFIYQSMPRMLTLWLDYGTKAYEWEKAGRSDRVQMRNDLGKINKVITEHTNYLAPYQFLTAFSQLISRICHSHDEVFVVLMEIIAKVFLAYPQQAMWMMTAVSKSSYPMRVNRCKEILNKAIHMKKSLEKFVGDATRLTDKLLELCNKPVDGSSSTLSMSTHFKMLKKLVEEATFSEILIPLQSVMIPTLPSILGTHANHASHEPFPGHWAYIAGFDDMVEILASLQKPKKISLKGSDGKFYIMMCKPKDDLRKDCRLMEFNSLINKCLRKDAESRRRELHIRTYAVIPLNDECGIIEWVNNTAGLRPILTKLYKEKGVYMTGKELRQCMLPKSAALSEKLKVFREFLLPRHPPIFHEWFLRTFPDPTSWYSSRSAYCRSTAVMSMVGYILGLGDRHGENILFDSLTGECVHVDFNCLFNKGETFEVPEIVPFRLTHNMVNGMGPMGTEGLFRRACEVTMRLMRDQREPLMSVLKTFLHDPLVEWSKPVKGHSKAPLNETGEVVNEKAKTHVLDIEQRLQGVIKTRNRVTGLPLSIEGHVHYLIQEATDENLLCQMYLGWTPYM

SMILES	Ki [1]	Cisplatin Sensitization Assay [2]
Nc1nn2cc(F)cnc2c1C(=O)Nc1cnccc1OC1CC[S+]([O-])CC1 (centres unmarked) [I-O-44, 2-amino-6-fluoro-N-(4-((1-oxidotetrahydro-2H-thiopyran-4-yl)oxy)pyridin-3-yl)pyrazolo[1,5-a]pyrimidine-3-carboxamide]	10 to 1000 nM	++ (Compounds with a Cisplatin sensitization value >0.02 μM but <0.2 μM are marked with “++.”)
CN(C)CCCNC(=O)C1CCN(c2c(F)cncc2NC(=O)c2c(N)nn3cc(F)cnc23)CC1 [I-G-26, 2-amino-N-(4-(4-((3-(dimethylamino)propyl)carbamoyl)piperidin-1-yl)-5-fluoropyridin-3-yl)-6-fluoropyrazolo[1,5-a]pyrimidine-3-carboxamide]		++ (Compounds with a Cisplatin sensitization value >0.02 μM but <0.2 μM are marked with “++.”)
Nc1nn2cc(F)cnc2c1C(=O)Nc1cncc(F)c1N1CCC(N2CCCC2=O)CC1 [I-N-147, 2-amino-6-fluoro-N-(5-fluoro-4-(4-(2-oxopyrrolidin-1-yl)piperidin-1-yl)pyridin-3-yl)pyrazolo[1,5-a]pyrimidine-3-carboxamide]		+++ (Compounds with a Cisplatin sensitization value of <0.02 μM are marked with “+++.”)
Cn1cc(-c2ccncc2NC(=O)c2c(N)nn3cc(F)cnc23)ccc1=O [I-C-59, 2-amino-6-fluoro-N-(1-methyl-6-oxo-1,6-dihydro-[3,4′-bipyridin]-3′-yl)pyrazolo[1,5-a]pyrimidine-3-carboxamide]		++ (Compounds with a Cisplatin sensitization value >0.02 μM but <0.2 μM are marked with “++.”)
Nc1nn2cc(F)cnc2c1C(=O)Nc1cnccc1O[C@H]1CCCNC1 [I-O-85, (S)-2-amino-6-fluoro-N-(4-(piperidin-3-yloxy)pyridin-3-yl)pyrazolo[1,5-a]pyrimidine-3-carboxamide]		+++ (Compounds with a Cisplatin sensitization value of <0.02 μM are marked with “+++.”)
CN(C)CC1CCN(c2ccncc2NC(=O)c2c(N)nn3cc(Cl)cnc23)CC1 [I-N-45, 2-amino-6-chloro-N-(4-(4-((dimethylamino)methyl)piperidin-1-yl)pyridin-3-yl)pyrazolo[1,5-a]pyrimidine-3-carboxamide]		++ (Compounds with a Cisplatin sensitization value >0.02 μM but <0.2 μM are marked with “++.”)
Cn1ccc2c(NC(=O)c3c(N)nn4cc(F)cnc34)cncc21 [I-C-74, 2-amino-6-fluoro-N-(1-methyl-1H-pyrrolo[2,3-c]pyridin-4-yl)pyrazolo[1,5-a]pyrimidine-3-carboxamide]		+ (Compounds with a Cisplatin sensitization value >0.2 μM but <5 μM are marked with “+.”)
N#CCc1cnc2c(C(=O)Nc3cnccc3OC3CCOCC3)c(N)nn2c1 [I-O-30, 2-amino-6-(cyanomethyl)-N-(4-((tetrahydro-2H-pyran-4-yl)oxy)pyridin-3-yl)pyrazolo[1,5-a]pyrimidine-3-carboxamide]		+++ (Compounds with a Cisplatin sensitization value of <0.02 μM are marked with “+++.”)
CC1(N2CCN(c3ccncc3NC(=O)c3c(N)nn4cc(F)cnc34)CC2)COC1 [I-N-62, 2-amino-6-fluoro-N-(4-(4-(3-methyloxetan-3-yl)piperazin-1-yl)pyridin-3-yl)pyrazolo[1,5-a]pyrimidine-3-carboxamide]		++ (Compounds with a Cisplatin sensitization value >0.02 μM but <0.2 μM are marked with “++.”)
CN1CC2CC1CN2C(=O)C1CCN(c2c(F)cncc2NC(=O)c2c(N)nn3cc(F)cnc23)CC1 (centres unmarked) [I-G-53, 2-amino-6-fluoro-N-(5-fluoro-4-(4-(5-methyl-2,5-diazabicyclo[2.2.1]heptane-2-carbonyl)piperidin-1-yl)pyridin-3-yl)pyrazolo[1,5-a]pyrimidine-3-carboxamide]		+++ (Compounds with a Cisplatin sensitization value of <0.02 μM are marked with “+++.”)
COc1cncc(NC(=O)c2c(N)nn3cc(F)cnc23)c1-c1cncn1C [I-C-81, 2-amino-6-fluoro-N-(5-methoxy-4-(1-methyl-1H-imidazol-5-yl)pyridin-3-yl)pyrazolo[1,5-a]pyrimidine-3-carboxamide]		+++ (Compounds with a Cisplatin sensitization value of <0.02 μM are marked with “+++.”)
CN(C)CCCOc1ccncc1NC(=O)c1c(N)nn2cc(Cl)cnc12 [I-O-52, 2-amino-6-chloro-N-(4-(3-(dimethylamino)propoxy)pyridin-3-yl)pyrazolo[1,5-a]pyrimidine-3-carboxamide]		+ (Compounds with a Cisplatin sensitization value >0.2 μM but <5 μM are marked with “+.”)
CN1CCN(CC2CCN(c3c(F)cncc3NC(=O)c3c(N)nn4cc(F)cnc34)CC2)CC1 [I-N-150, 2-amino-6-fluoro-N-(5-fluoro-4-(4-((4-methylpiperazin-1-yl)methyl)piperidin-1-yl)pyridin-3-yl)pyrazolo[1,5-a]pyrimidine-3-carboxamide]		+++ (Compounds with a Cisplatin sensitization value of <0.02 μM are marked with “+++.”)
Nc1nn2cc(F)cnc2c1C(=O)Nc1cnccc1O[C@@H]1CN2CCC1CC2 [I-O-10, (S)-2-amino-6-fluoro-N-(4-(quinuclidin-3-yloxy)pyridin-3-yl)pyrazolo[1,5-a]pyrimidine-3-carboxamide]		+++ (Compounds with a Cisplatin sensitization value of <0.02 μM are marked with “+++.”)
CO[C@H]1CCN(C(=O)C2CCN(c3c(F)cncc3NC(=O)c3c(N)nn4cc(F)cnc34)CC2)C1 [I-G-99, (S)-2-amino-6-fluoro-N-(5-fluoro-4-(4-(3-methoxypyrrolidine-1-carbonyl)piperidin-1-yl)pyridin-3-yl)pyrazolo[1,5-a]pyrimidine-3-carboxamide]		+++ (Compounds with a Cisplatin sensitization value of <0.02 μM are marked with “+++.”)
Cc1nc(N2CCN(C)CC2)ccc1-c1ccncc1NC(=O)c1c(N)nn2cc(F)cnc12 [I-C-40, 2-amino-6-fluoro-N-(2-methyl-6-(4-methylpiperazin-1-yl)-[3,4′-bipyridin]-3′-yl)pyrazolo[1,5-a]pyrimidine-3-carboxamide]		+++ (Compounds with a Cisplatin sensitization value of <0.02 μM are marked with “+++.”)
